What all share (type): in vivo
Series [1] deals with Southern armyworm (Spodoptera eridania). Put plainly: Southern armyworm test on sprayed lima bean plants. To be noted: 500 ppm; armyworm larvae on lima bean, 4 days after treatment; in comparison with untreated controls. On the procedure:
The active compounds were formulated in cyclohexanone as a 10,000 ppm solution supplied in 1.3 ml ABgene® tubes. These tubes were inserted into an automated electrostatic sprayer equipped with an atomizing nozzle and they served as stock solutions for which lower dilutions were made in 50% acetone:50% water (v/v). A nonionic surfactant (Kinetic®) was included in the solution at a volume of 0.01% (v/v). Lima bean plants (variety Sieva) were grown 2 plants to a pot and selected for treatment at the 1st true leaf stage. Test solutions were sprayed onto the foliage by an automated electro-static plant sprayer equipped with an atomizing spray nozzle. The plants were dried in the sprayer fume hood and then removed from the sprayer. Each pot was placed into perforated plastic bags with a zip closure. Ten to 11 armyworm larvae were placed into the bag and the bags zipped closed. Test plants were maintained in a growth room at 25° C. and 20-40% relative humidity for 4 days, avoiding direct exposure to fluorescent light (24 hour photoperiod) to prevent trapping of heat inside the bags. Mortality and reduced feeding were assessed 4 days after treatment, compared to untreated control plants.

In series [2] the test system is yellow fever mosquito (Aedes aegypti). Nature of the series: whole plant or invertebrate. To be noted: 48 h, larval mortality after 2 days, in comparison with untreated controls. As for the experimental part:
For evaluating control of yellow fever mosquito (Aedes aegypti) the test unit consisted of 96-well-microtiter plates containing 200 μl of tap water per well and 5-15 freshly hatched A. aegypti larvae. The compounds or mixtures were formulated using a solution containing 75% water and 25% DMSO. Different concentrations of formulated compounds or mixtures were sprayed onto the insect diet at 2.5 μl, using a custom built micro atomizer, at two replications. After application, microtiter plates were incubated at 28±1° C., 80±5% RH for 2 days. Larval mortality was then visually assessed.

Series [3] deals with boll weevil (Anthonomus grandis). Nature of the series: Boll weevil control, 24-well microtiter plates with insect diet and eggs. The following applies: 120 h, egg and larval mortality after 5 days, in comparison with untreated controls. On the procedure: For evaluating control of boll weevil (Anthonomus grandis) the test unit consisted of 24-well-microtiter plates containing an insect diet and 20-30 A. grandis eggs. The compounds were formulated using a solution containing 75% v/v water and 25% v/v DMSO. Different concentrations of formulated compounds were sprayed onto the insect diet at 20 μl, using a custom built micro atomizer, at two replications. After application, microtiter plates were incubated at about 23±1° C. and about 50±5% relative humidity for 5 days. Egg and larval mortality was then visually assessed.

Series [4] concerns Mediterranean fruitfly (Ceratitis capitata). Nature of the series: Mediterranean fruitfly control, microtiter plates with insect diet and eggs. The following applies: 120 h, egg and larval mortality after 5 days, in comparison with untreated controls. On the procedure:
For evaluating control of Mediterranean fruitfly (Ceratitis capitata) the test unit consisted of microtiter plates containing an insect diet and 50-80 C. capitata eggs. The compounds were formulated using a solution containing 75% v/v water and 25% v/v DMSO. Different concentrations of formulated compounds were sprayed onto the insect diet at 5 μl, using a custom built micro atomizer, at two replications. After application, microtiter plates were incubated at about 28±1° C. and about 80±5% relative humidity for 5 days. Egg and larval mortality was then visually assessed.

Series [5] relates to Silverleaf whitefly (Bemisia argentifolii). Nature of the series: Silverleaf whitefly test on sprayed cotton plants. The following applies: 72 h, whitefly adults on cotton, 3 days after treatment, in comparison with untreated controls. On the procedure:
The active compounds were formulated in cyclohexanone as a 10,000 ppm solution supplied in 1.3 ml ABgene® tubes. These tubes were inserted into an automated electrostatic sprayer equipped with an atomizing nozzle and they served as stock solutions for which lower dilutions were made in 50% acetone:50% water (v/v). A nonionic surfactant (Kinetic®) was included in the solution at a volume of 0.01% (v/v). Cotton plants at the cotyledon stage (one plant per pot) were sprayed by an automated electrostatic plant sprayer equipped with an atomizing spray nozzle. The plants were dried in the sprayer fume hood and then removed from the sprayer. Each pot was placed into a plastic cup and 10 to 12 whitefly adults (approximately 3-5 days old) were introduced. The insects were collected using an aspirator and 0.6 cm, nontoxic Tygon® tubing (R-3603) connected to a barrier pipette tip. The tip, containing the collected insects, was then gently inserted into the soil containing the treated plant, allowing insects to crawl out of the tip to reach the foliage for feeding. Cups were covered with a reusable screened lid (150-micron mesh polyester screen PeCap from Tetko, Inc.). […] Mortality was assessed 3 days after treatment, compared to untreated control plants.

Series [6] relates to Green soldier stink bug (Nezara viridula). Nature of the series: Green soldier stink bug test on sprayed soybean pods. The following applies: 120 h, 3rd instar N. viridula on soybean pods, after 5 days, in comparison with untreated controls. On the procedure: The active compound is dissolved at the desired concentration in a mixture of 1:1 (vol:vol) distilled water:aceteone. Surfactant (Kinetic HV) is added at a rate of 0.01% (vol/vol). The test solution is prepared at the day of use. Soybean pods were placed in microwavable plastic cups lined with moist filter paper and inoculated with ten 3rd instar N. viridula. Using a hand atomizer, an approximately 2 ml solution is sprayed into each cup. Treated cups were kept at about 28-29° C. and relative humidity of about 50-60%. Percent mortality was recorded after 5 days.

Structures are written as SMILES.

Mortality data for four compounds are collected here from US10385012B2, “Thioamides and amides for controlling animal pests” (BASF SE, priority 2013, dated 2019).

For the compound `N#CC(Cc1ccc(C(F)(F)F)cc1)(C(N)=O)c1ccc(F)cc1` (centres unmarked) [II-2], in series [1], the mortality entry is recorded as “at least 75%”.

As to `C#Cc1ccc(CC(C#N)(C(=S)NC)c2ccc(F)cc2)cc1` (centres unmarked) [III-1, 2-cyano-3-(4-ethynylphenyl)-2-(4-fluorophenyl)-N-methyl-propanethioamide], the mortality at 2500 ppm in series [2] and in series [3] was not below 75% each time.

`C#Cc1ccc(CC(C#N)(C(=O)NC)c2ccc(F)cc2)cc1` (centres unmarked) [III-4, 2-cyano-3-(4-ethynylphenyl)-2-(4-fluorophenyl)-N-methyl-propanamide]: the mortality at 2500 ppm in series [4] and in series [3] was not below 75% each time.

Turning to `C#Cc1ccc(CC(C#N)(C(N)=S)c2ccccc2)cc1` (centres unmarked) [II-1, 2-cyano-3-(4-ethynylphenyl)-2-phenylpropanethioamide], the mortality at 500 ppm in series [5] and in series [6] was not below 75% in each case. The compound further displayed a mortality at 2500 ppm in series [3] not below 75%.
